Source: ChEMBL document CHEMBL1201862, “PubChem BioAssay data set” (2004)
Values belong to the molecule of their own block, whether it stands above or below them. Activity calls are given as the source filed them.

What was measured:
[1] = P. falciparum 3D7-ScDHODH growth inhibitors, dose response, SYBR Green, dry powder samples (AID 1159570); assay type: functional, cell-based;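 further: parasite growth measured after 72 hours of compound exposure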
[2] = HepG2 cell cytotoxicity, dose response, cytotoxicity control, plate reader, dry powder samples (AID 1159569); assay type: functional, cell-based;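 further: inhibitor potency with signal falling toward the positive control level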
[3] = P. falciparum Dd2 growth inhibitors, dose response, SYBR Green, cherry-picked samples (AID 1159567); assay type: functional, cell-based
[4] = P. falciparum Dd2 growth inhibitors, dose response, SYBR Green, dry powder samples (AID 1159566); assay type: functional, cell-based;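 further: potency for growth inhibition with lower SYBR green DNA signal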
[5] = P. falciparum ATP4 D1247Y mutant growth inhibitors, dose response, NITD609-resistant line, SYBR Green, dry powder (AID 1159571); assay type: functional, cell-based;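 further: parasites synchronized at ring stage by sorbitol before testing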
[6] = biological target: T1, fMet-Leu-Phe receptor (Homo sapiens, UniProt P21462); assay: FPR ligands, dose response (AID 519); assay type: functional
T1 sequence (P21462 whole entry): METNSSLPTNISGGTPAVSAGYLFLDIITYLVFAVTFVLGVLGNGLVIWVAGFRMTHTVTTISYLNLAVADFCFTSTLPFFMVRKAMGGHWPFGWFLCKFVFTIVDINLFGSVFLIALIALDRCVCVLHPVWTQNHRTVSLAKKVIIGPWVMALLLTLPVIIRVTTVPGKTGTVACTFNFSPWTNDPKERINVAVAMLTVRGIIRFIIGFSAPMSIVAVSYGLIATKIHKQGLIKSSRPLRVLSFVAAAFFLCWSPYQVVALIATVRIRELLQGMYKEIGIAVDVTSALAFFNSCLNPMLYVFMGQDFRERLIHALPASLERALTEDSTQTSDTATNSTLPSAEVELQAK

[7] = biological target: Cytochrome P450 2C9 (Homo sapiens, UniProt P11712)
Chain of Cytochrome P450 2C9 (P11712 whole entry): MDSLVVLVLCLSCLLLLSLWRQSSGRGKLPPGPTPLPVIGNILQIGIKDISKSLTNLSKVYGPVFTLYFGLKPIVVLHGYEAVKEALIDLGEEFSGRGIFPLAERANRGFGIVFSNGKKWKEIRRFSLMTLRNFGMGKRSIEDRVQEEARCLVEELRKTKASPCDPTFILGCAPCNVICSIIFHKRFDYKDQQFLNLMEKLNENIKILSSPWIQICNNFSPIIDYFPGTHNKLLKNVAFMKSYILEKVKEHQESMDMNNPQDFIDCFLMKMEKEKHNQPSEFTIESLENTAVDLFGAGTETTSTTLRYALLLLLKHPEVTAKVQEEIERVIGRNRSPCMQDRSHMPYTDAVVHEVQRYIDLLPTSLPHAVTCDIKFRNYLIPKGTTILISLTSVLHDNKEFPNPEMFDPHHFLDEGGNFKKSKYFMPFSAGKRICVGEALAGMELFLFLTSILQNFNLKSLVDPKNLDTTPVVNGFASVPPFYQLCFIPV

[8] = growth suppression of PTEN-null colon cells, dose response, cell-based, HCT116 PTEN knockout (AID 1047); assay type: functional;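 further: HCT116 colon tumor cells with PTEN knocked out; cells exposed to compound for 60 hours before readout; potency for loss of cell viability measured by luminescence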
[9] = biological target: T2, Estrogen receptor (Homo sapiens, UniProt P03372);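 further: potency for inhibiting coactivator peptide recruitment to the receptor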
T2 sequence (P03372 whole entry): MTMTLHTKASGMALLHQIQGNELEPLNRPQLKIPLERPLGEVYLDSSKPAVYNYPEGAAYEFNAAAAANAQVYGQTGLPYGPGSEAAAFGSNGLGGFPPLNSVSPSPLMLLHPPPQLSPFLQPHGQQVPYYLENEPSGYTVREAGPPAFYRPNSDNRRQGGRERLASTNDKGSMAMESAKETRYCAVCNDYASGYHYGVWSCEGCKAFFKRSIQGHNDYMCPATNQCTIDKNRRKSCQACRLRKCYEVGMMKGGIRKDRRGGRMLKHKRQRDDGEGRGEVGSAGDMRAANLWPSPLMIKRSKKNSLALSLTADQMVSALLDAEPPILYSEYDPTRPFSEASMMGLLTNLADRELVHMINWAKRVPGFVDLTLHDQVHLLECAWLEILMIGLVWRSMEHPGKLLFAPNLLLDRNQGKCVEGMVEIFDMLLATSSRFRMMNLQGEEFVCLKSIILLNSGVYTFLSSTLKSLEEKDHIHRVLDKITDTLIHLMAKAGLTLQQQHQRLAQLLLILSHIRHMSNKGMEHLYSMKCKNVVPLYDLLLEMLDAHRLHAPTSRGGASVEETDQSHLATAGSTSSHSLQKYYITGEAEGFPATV

[10] = growth suppression of beta-catenin-knockout colon cells, dose response, cell-based, HCT116, human colon tumor (AID 1045); assay type: functional;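 further: HCT116 colon tumor cells with beta catenin knocked out; cells exposed to compound for 60 hours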
[11] = biological target: T3, Protein Tat (Human immunodeficiency virus type 1 group M subtype B (isolate HXB2)(HIV-1), UniProt P04608); assay type: functional;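 further: tat binding to TAR RNA read out by fluorescence polarization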
T3 sequence (P04608 whole entry): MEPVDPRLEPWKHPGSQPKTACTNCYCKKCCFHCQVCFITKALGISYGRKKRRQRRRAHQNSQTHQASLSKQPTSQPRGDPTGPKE

[12] = Jurkat T cell cytotoxicity, dose response, cytotoxicity control for P. falciparum gametocyte viability project, luminescence (AID 1117277); assay type: functional, cell-based;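 further: potency reflects loss of cellular ATP meaning fewer viable cells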
[13] = P. falciparum late gametocyte killing, dose response, luminescence (AID 1117278); assay type: functional, cell-based;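 further: gametocytes exposed to compound for 24 hours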
[14] = biological target: Ion channel NompC (Danio rerio, UniProt Q7T1G6); assay: Fluorescence counterscreen assay for TRPML3 agonists: dose response cell-based high-throughput screening assay to identify agonists of the transient receptor potential channel N1 (TRPN1). [Related pubchem assays: 1526, 1424, 1448 ]; assay type: functional
Chain of Ion channel NompC (Q7T1G6 whole entry): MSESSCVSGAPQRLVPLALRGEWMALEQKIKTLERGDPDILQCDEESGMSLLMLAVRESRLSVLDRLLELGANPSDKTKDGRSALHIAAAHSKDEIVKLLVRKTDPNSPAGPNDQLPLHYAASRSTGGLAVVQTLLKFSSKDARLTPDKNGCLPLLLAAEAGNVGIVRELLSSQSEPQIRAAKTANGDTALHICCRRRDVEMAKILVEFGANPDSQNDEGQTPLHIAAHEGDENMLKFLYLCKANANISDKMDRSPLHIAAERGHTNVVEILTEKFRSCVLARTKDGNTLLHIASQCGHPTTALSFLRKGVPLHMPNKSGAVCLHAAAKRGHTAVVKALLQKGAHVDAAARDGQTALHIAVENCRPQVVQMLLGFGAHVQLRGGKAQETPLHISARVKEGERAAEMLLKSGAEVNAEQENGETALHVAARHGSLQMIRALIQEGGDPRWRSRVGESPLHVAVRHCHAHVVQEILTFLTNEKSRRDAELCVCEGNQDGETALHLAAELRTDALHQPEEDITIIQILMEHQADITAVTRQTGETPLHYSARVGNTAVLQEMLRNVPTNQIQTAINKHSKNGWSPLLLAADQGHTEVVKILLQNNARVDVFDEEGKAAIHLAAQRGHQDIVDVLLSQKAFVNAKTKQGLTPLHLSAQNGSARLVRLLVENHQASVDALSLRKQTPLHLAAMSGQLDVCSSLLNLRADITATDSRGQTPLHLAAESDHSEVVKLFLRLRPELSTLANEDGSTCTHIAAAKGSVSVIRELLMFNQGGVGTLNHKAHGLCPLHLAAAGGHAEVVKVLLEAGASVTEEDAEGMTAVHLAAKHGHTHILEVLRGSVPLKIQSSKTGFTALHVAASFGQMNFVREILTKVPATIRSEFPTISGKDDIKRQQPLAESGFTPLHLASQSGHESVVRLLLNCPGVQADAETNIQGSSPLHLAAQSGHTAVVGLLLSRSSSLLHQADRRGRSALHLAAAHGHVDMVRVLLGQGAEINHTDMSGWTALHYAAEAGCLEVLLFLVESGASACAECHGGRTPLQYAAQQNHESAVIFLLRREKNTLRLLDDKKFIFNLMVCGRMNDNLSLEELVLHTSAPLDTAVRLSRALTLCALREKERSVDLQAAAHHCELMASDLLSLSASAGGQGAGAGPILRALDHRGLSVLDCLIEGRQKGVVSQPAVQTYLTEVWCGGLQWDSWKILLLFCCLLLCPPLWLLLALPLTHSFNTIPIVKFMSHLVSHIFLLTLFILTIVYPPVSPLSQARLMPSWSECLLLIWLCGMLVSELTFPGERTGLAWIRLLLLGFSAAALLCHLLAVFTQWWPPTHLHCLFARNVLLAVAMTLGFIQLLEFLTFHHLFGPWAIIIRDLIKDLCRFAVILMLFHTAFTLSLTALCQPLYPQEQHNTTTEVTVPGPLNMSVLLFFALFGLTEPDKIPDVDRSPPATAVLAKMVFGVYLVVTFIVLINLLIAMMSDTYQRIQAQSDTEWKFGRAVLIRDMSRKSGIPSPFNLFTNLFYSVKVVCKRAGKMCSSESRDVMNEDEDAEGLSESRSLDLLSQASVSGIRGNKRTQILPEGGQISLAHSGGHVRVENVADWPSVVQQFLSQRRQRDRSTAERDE

[15] = biological target: T4, Mucolipin-3 (Homo sapiens, UniProt Q8TDD5); assay: Dose response cell-based high-throughput screening assay for agonists of the transient receptor potential channel ML3 (TRPML3). [Related pubchem assays: 1526, 1424, 1448 ]; assay type: functional
T4 sequence (Q8TDD5 whole entry): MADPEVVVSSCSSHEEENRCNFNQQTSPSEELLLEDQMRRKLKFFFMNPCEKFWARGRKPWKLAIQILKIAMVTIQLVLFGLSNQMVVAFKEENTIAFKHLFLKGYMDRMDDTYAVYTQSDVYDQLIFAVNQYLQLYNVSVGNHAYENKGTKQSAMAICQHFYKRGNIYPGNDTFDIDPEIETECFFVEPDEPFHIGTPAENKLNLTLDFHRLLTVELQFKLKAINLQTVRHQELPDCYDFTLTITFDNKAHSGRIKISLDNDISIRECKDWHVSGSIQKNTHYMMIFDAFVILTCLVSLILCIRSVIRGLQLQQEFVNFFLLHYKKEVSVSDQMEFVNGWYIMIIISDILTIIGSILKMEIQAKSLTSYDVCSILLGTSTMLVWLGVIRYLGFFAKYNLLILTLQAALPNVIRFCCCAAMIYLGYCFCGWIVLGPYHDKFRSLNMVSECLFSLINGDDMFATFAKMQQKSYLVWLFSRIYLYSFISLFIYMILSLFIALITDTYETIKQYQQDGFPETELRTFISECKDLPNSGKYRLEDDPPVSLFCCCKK

[16] = biological target: T5, Mannose-6-phosphate isomerase (Homo sapiens, UniProt P34949); assay: inhibitors of human PMI, primary screen, biochemical, fluorescence intensity, coupled assay (AID 1209)
T5 sequence (P34949 whole entry): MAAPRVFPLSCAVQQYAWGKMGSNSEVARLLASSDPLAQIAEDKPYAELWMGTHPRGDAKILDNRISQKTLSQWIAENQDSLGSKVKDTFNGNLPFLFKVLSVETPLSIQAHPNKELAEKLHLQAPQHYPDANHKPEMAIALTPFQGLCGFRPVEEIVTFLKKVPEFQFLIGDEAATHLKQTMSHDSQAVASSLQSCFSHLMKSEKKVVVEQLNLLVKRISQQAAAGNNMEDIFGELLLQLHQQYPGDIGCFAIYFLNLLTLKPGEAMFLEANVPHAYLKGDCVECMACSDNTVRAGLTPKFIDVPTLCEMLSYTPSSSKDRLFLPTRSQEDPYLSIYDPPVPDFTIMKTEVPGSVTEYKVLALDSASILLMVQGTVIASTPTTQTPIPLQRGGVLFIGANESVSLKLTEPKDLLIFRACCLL

[17] = biological target: T6, RNA-binding protein pos-1 (Caenorhabditis elegans, UniProt G5EF15); assay: inhibitors of POS-1/mex-3 RNA binding, dose response, biochemical, fluorescence polarization (AID 1964);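 further: purified POS-1 fused to maltose binding protein made in E. coli; potency of compounds blocking POS-1 binding to fluorescent RNA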
T6 sequence (G5EF15 whole entry): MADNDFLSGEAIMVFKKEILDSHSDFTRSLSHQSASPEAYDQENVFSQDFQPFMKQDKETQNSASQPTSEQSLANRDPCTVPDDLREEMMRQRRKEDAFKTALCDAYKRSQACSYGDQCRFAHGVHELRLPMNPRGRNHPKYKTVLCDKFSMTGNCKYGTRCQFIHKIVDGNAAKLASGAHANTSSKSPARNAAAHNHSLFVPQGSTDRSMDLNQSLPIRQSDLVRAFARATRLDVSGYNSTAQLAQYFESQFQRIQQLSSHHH

[18] = biological target: T7, Zinc finger protein mex-5 (Caenorhabditis elegans, UniProt Q9XUB2); assay: MEX-5/TCR-2 RNA interaction inhibitors, dose response, biochemical, C. elegans, fluorescence polarization (AID 1960)
T7 sequence (Q9XUB2 whole entry): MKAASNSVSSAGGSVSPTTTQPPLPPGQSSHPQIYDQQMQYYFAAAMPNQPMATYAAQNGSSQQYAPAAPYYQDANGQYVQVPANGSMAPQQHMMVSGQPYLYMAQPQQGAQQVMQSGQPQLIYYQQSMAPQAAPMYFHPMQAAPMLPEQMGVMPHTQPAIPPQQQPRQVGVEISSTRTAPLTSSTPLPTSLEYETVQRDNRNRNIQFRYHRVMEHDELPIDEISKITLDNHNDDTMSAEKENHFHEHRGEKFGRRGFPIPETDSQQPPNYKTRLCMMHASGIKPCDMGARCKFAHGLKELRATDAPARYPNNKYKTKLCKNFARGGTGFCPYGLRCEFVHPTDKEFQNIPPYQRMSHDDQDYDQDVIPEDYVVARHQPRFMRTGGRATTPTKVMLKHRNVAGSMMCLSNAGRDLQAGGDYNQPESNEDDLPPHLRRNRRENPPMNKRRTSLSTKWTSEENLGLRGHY

[19] = biological target: T8, Leucine aminopeptidase (Plasmodium falciparum 3D7, UniProt Q8IL11); assay: P. falciparum M17LAP inhibitors, primary screen, biochemical, fluorogenic H-Leu-NHMec substrate, 1536-well (AID 1619); assay type: functional
T8 sequence (Q8IL11 whole entry): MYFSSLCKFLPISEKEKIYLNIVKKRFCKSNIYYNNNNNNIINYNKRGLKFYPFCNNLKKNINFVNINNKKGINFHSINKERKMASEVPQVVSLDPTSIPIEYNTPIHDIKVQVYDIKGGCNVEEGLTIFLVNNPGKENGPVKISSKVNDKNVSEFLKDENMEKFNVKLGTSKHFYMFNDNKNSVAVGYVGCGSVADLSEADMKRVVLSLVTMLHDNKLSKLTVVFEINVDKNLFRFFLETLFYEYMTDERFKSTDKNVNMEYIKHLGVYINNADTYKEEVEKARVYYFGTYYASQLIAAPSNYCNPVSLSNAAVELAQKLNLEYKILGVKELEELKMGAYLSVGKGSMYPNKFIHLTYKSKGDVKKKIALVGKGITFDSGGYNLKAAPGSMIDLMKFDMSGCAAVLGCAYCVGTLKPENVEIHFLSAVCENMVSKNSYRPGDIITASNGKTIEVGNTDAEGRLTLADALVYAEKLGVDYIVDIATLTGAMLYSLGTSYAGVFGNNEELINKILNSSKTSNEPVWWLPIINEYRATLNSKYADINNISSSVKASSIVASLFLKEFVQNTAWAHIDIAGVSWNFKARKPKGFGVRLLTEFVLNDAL

SMILES: CC(C)CC#Cc1ccc([C@H]2[C@@H](CO)N3C(=O)CN(C(=O)Cc4ccccc4)C[C@H]23)cc1
- AC50 [1]: 2.02 µM (active)
- AC50 [2]: 26.3 µM (active)
- AC50 [3]: 0.424 µM (active)
- AC50 [4]: 0.836 µM (active)
- AC50 [5]: 1.09 µM (active)

- Ki [6]: 49.8 µM (inactive)
- AC50 [7]: 28.2 µM (inconclusive)
SMILES: CCC(CC)C(=O)/N=c1\c2cnn(-c3ccccc3)c2[nH]c(=O)n1-c1ccccc1

SMILES: Cc1cccc(N2CCN(c3nc4ccccc4n4cnnc34)CC2)c1C
- EC50 [8]: 23.4 µM (active)
- IC50 [9]: 38.8 µM (not active)
- EC50 [10]: 25.4 µM (active)

- IC50 [11]: > 100 µM (active)
SMILES: COc1ccc(-c2nc3oc4cc(OC)ccc4c(=O)c3c(=O)n2Cc2ccco2)cc1

SMILES: Cc1ccccc1S(=O)(=O)N1CC(=O)N2[C@H](CO)[C@H](c3ccc(C#CCC4CCCC4)cc3)[C@H]2C1
- AC50 [1]: 1.2 µM (active)
- AC50 [2]: 26.5 µM (active)
- AC50 [3]: 1.9 µM (active)
- AC50 [4]: 0.411 µM (active)
- AC50 [5]: 1.42 µM (active)

SMILES: C=CCCC(=O)Nc1ccc(Br)cn1
- IC50 [12]: > 83.3 µM (inactive)
- IC50 [13]: > 109 µM (inactive)

- Ki [6]: > 66.7 µM (inactive)
SMILES: O=C(NCCCN1CCN(c2ccc(F)cc2)CC1)c1cccc(N2CCCC2=O)c1

SMILES: O=C(c1ccccc1F)N(NC(=O)C(O)(c1ccccc1)c1ccccc1)c1ccccc1
- EC50 [14]: > 29.9 µM (not active)
- EC50 [15]: 10.4 µM (not active)

- IC50 [9]: > 50 µM (not active)
SMILES: Cc1nn(Cc2ccccc2)c(C)c1NC(=O)CSc1nnc(-c2cc(Cl)ccc2O)n1C

SMILES: CCc1ccc(N2C(=O)CC(Cn3nc(C)cc3C)C2=O)cc1 (stereo not drawn)
- IC50 [12]: > 83.3 µM (inactive)
- IC50 [13]: > 109 µM (inactive)

- IC50 [16]: > 50 µM (not active)
SMILES: N#C/C(=C\c1cccnc1)C(=O)Nc1ccccc1

SMILES: O=S(=O)(c1ccccc1)N1C[C@@H]2N[C@H](C1)[C@H]2c1ccc(-c2ccc(F)cc2)cc1
- AC50 [1]: 1.27 µM (active)
- AC50 [2]: 14.3 µM (active)
- AC50 [3]: 1.54 µM (active)
- AC50 [4]: 1.47 µM (active)
- AC50 [5]: 1.85 µM (active)

SMILES: CO[C@@H]1CN(C)C(=O)c2cc(NC(=O)c3ccccc3F)ccc2OC[C@H](C)N(C(=O)c2ccccc2F)C[C@@H]1C
- AC50 [1]: 2.87 µM (active)
- AC50 [2]: > 100 µM (inactive)
- AC50 [3]: 2.47 µM (active)
- AC50 [4]: 1.1 µM (active)
- AC50 [5]: 1.64 µM (active)

SMILES: O=S1(=O)OCCC(c2ccccc2)N1Cc1ccccc1 (stereo not drawn)
- IC50 [12]: > 83.3 µM (inactive)
- IC50 [13]: > 109 µM (inactive)

- IC50 [9]: 24.7 µM (active)
- EC50 [17]: 14.4 µM (active)
- EC50 [18]: 12.2 µM (active)
- IC50 [19]: 37.2 µM (active)
SMILES: O=C1C2CC=C(Cl)CC2C(=O)N1CCCCCCN1C(=O)C2CC=C(Cl)CC2C1=O (stereo not drawn)

- IC50 [16]: 18.3 µM (active)
SMILES: Cc1ccc(/C=N/n2c(S)nnc2-c2ccncc2)cc1

- IC50 [16]: > 50 µM (not active)
SMILES: CC1(C)CC(=O)C(/C=N/c2ccc3[nH]ncc3c2)=C(O)C1

- EC50 [14]: > 29.9 µM (not active)
- EC50 [15]: 0.342 µM (active)
SMILES: CC(C)Oc1ccc(/C=N/NC(=O)C(CSCc2ccccc2)NC(=O)c2ccc([N+](=O)[O-])cc2)cc1 (stereo not drawn)

- IC50 [11]: > 100 µM (active)
SMILES: CCc1ccc(CC)c(S(=O)(=O)Nc2ccc(C(=O)O)c(O)c2)c1

SMILES: O=C(CSc1nnc(-c2ccc(F)cc2)o1)NC1CCCCC1
- IC50 [12]: > 83.3 µM (inactive)
- IC50 [13]: > 109 µM (inactive)
